# Calls of active or inactive are those of the source. The rule behind the calls is not given here.
# Legend:
# [1] = Selectivity index, ratio of GI50 for mouse BALA/3T3 cells to GI50 for human HepG2 cells measured after 72 hrs by LDH assay; format: toxicity; settings: BALA/3T3 cells versus HepG2 cells, read-out: Selectivity Index
# [2] = Selectivity index, ratio of GI50 for human HaCaT cells to GI50 for human WM793 cells
# MCF7 = assay: Induction of cell cycle arrest in human MCF7 cells assessed as decrease in phospho-Rb expression at 45 uM measured after 24 hrs by Western blot analysis; format: functional, cell-based
# HepG2 [3] = assay: Cytotoxicity against human HepG2 cells assessed as cell growth inhibition measured after 72 hrs by MTT assay; format: functional
# THP-1 = assay: Cytotoxicity against human THP-1 cells assessed as cell growth inhibition measured after 72 hrs by MTT assay; format: functional
# [4] = Selectivity index, ratio of GI50 for mouse BALA/3T3 cells to GI50 for human WM793 cells
# Salmon testes DNA [5] = assay: Displacement of methyl green from salmon sperm DNA at 1 uM measured after 2 hrs by fluorescence plate reader method relative to control; format: cell-based; settings: Salmo salar, Spermatozoa
# HepG2 [6] = assay: Induction of apoptosis in human HepG2 cells assessed as activation of cleaved caspase 3 expression at 0.7 uM incubated for 24 hrs by Western blot analysis; format: functional, cell-based
# HepG2 [7] = assay: Induction of cell cycle arrest in human HepG2 cells assessed as effect on phospho-Chk2 expression at 45 uM measured after 24 hrs by Western blot analysis; format: functional, cell-based
# HepG2 [8] = assay: Cytotoxicity against human HepG2 cells assessed as cell growth inhibition measured after 24 hrs by MTT assay; format: functional
# [9] = Selectivity index, ratio of GI50 for mouse BALA/3T3 cells to GI50 for human HCT-116 cells; format: toxicity; settings: BALA/3T3 cells versus HCT-116 cells, read-out: RatioGI50
# HepG2 [10] = assay: Cytotoxicity against human HepG2 cells assessed as cell growth inhibition measured after 24 hrs by coomassie brilliant blue staining based total cellular protein assay; format: functional
# [11] = Selectivity index, ratio of GI50 for human HaCaT mouse BALA/3T3 cells to GI50 for human A549 cells; format: toxicity; settings: read-out: RatioGI50
# HCT-116 [12] = assay: Induction of DNA damage in human HCT-116 cells assessed as increase in tail length at 0.7 uM incubated measured after 24 hrs by alkaline Comet assay; format: functional, cell-based
# [13] = Selectivity index, ratio of GI50 for mouse BALA/3T3 cells to GI50 for human HepG2 cells measured after 48 hrs by neutral red uptake assay; format: toxicity; settings: BALA/3T3 cells versus HepG2 cells, read-out: Selectivity Index
# [14] = Selectivity index, ratio of GI50 for mouse BALA/3T3 cells to GI50 for human HepG2 cells; format: toxicity; settings: BALA/3T3 cells versus HepG2 cells, read-out: RatioGI50
# [15] = Selectivity index, ratio of GI50 for human HaCaT cells to GI50 for human HCT-116 cells; format: toxicity; settings: HaCaT cells versus HCT-116 cells, read-out: RatioGI50
# HepG2 [16] = assay: Induction of DNA damage in human HepG2 cells assessed as increase in olive tail moment incubated at 0.7 uM measured after 24 hrs by alkaline Comet assay; format: functional
# [17] = (§1) Cytotoxicity against mouse BALB/3T3 cells assessed as cell growth inhibition measured after 48 hrs by coomassie brilliant blue staining based total cellular protein assay; settings: BALB/3T3 cells
# BALB/3T3 [18] = assay: as §1; settings: balb/3t3, 48 h
# [19] = Cytotoxicity against human HaCaT cells assessed as cell growth inhibition measured after 72 hrs by MTT assay; format: cell-based
# HeLa = assay: Cytotoxicity against human HeLa cells assessed as cell growth inhibition measured after 72 hrs by MTT assay; format: functional
# [20] = Selectivity index, ratio of GI50 for mouse BALA/3T3 cells to GI50 for human HepG2 cells measured after 72 hrs by coomassie brilliant blue staining based total cellular protein assay; format: toxicity; settings: BALA/3T3 cells versus HepG2 cells, read-out: Selectivity Index
# HepG2 [21] = assay: Induction of apoptosis in human HepG2 cells assessed as increase in Bax expression at 45 uM after 24 hrs by Western blot analysis; format: functional, cell-based
# [22] = target: Mitogen-activated protein kinase; ERK1/ERK2 (Homo sapiens) (UniProt P27361+P28482); assay: Inhibition of ERK1/2 phosphorylation in human HepG2 cells at 45 uM after 24 hrs by Western blotting analysis; format: cell-based
# Mitogen-activated protein kinase; ERK1/ERK2 (Homo sapiens), sequence (P27361 whole entry, looked up): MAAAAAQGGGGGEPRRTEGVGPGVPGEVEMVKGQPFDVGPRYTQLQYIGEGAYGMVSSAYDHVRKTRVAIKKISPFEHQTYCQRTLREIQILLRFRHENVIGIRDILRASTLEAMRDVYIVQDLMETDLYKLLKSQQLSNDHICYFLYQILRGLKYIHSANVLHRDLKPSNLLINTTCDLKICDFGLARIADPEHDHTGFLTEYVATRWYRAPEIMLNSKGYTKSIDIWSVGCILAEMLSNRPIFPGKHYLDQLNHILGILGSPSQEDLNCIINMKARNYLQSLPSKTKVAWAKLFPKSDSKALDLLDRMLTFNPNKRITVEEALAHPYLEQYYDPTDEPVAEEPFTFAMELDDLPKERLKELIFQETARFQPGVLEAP
# Mitogen-activated protein kinase; ERK1/ERK2 (Homo sapiens), sequence (P28482 whole entry, looked up): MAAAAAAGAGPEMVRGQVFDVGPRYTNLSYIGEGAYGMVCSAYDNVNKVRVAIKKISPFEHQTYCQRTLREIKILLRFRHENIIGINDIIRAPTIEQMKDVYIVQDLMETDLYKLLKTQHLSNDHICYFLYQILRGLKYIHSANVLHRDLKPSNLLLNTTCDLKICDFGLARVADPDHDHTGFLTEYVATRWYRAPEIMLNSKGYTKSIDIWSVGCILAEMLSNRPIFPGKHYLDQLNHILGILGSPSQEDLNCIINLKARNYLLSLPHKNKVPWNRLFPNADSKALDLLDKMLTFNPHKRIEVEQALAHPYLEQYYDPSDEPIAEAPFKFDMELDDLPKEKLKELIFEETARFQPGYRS
# HCT-116 [23] = assay: Induction of cell cycle arrest in human HCT-116 cells assessed as decrease in phospho-Rb expression at 45 uM measured after 24 hrs by Western blot analysis; format: functional, cell-based
# [24] = Selectivity index, ratio of GI50 for mouse BALA/3T3 cells to GI50 for human HepG2 cells measured after 48 hrs by LDH assay; format: toxicity; settings: BALA/3T3 cells versus HepG2 cells, read-out: Selectivity Index
# [25] = Selectivity index, ratio of GI50 for mouse BALA/3T3 cells to GI50 for human HeLa cells; format: toxicity; settings: BALA/3T3 cells versus HeLa cells, read-out: RatioGI50
# [26] = (§2) Cytotoxicity against mouse BALB/3T3 cells assessed as cell growth inhibition measured after 72 hrs by neutral red uptake assay; format: cell-based; settings: BALB/3T3 cells
# BALB/3T3 [27] = assay: as §2; format: cell-based; settings: balb/3t3, 72 h
# [28] = Selectivity index, ratio of GI50 for human HaCaT cells to GI50 for human THP-1 cells
# HepG2 [29] = assay: Induction of DNA damage in human HepG2 cells assessed as increase in tail length incubated at 0.7 uM measured after 24 hrs by alkaline Comet assay; format: functional
# BALB/3T3 [30] = assay: Induction of DNA damage in mouse BALB/3T3 cells assessed as increase in tail length incubated at 55 uM measured after 24 hrs by alkaline Comet assay; format: cell-based; settings: balb/3t3, 24 h
# [31] = Selectivity index, ratio of GI50 for human HaCaT cells to GI50 for human HeLa cells; format: toxicity; settings: HaCaT cells versus HeLa cells, read-out: RatioGI50
# [32] = Selectivity index, ratio of GI50 for mouse BALA/3T3 cells to GI50 for human MCF7 cells; format: toxicity; settings: BALA/3T3 cells versus MCF7 cells, read-out: RatioGI50
# HepG2 [33] = assay: Cytotoxicity against human HepG2 cells assessed as cell growth inhibition measured after 24 hrs by neutral red uptake assay; format: functional
# [34] = (§3) Cytotoxicity against mouse BALB/3T3 cells assessed as cell growth inhibition measured after 48 hrs by MTT assay; format: cell-based; settings: BALB/3T3 cells
# BALB/3T3 [35] = assay: as §3; format: cell-based; settings: balb/3t3, 48 h
# HCT-116 [36] = assay: Induction of DNA damage in human HCT-116 cells assessed as increase in olive tail moment incubated at 0.7 uM measured after 24 hrs by alkaline Comet assay; format: functional
# HCT-116 [37] = assay: Induction of apoptosis in human HCT-116 cells assessed as activation of cleaved PARP1 expression at 0.7 uM incubated for 24 hrs by Western blot analysis; format: functional, cell-based
# Salmon testes DNA [38] = assay: Displacement of methyl green from salmon sperm DNA at 10 uM measured after 2 hrs by fluorescence plate reader method relative to control; format: cell-based; settings: Salmo salar, Spermatozoa
# [39] = Selectivity index, ratio of GI50 for mouse BALA/3T3 cells to GI50 for human THP-1 cells
compound,measurement,setting,value
COC(=O)c1[nH]c2ccc(F)cc2c1/C=C1\SC(=S)NC1=O,selectivity ratio at 72 h,[1],1570
same,RatioGI50,[2],0.87
same,Activity,MCF7,Active
same,GI50,HepG2 [3],12.1 µM
same,GI50,THP-1,62.4 µM
same,RatioGI50,[4],0.87
same,Activity,Salmon testes DNA [5],1.7%
same,Activity,HepG2 [6],Active
same,Activity,HepG2 [7],inactive
same,GI20,HepG2 [8],3 µM
same,GI80,HepG2 [8],95.6 µM
same,GI50,"HepG2 [8]; Homo sapiens, HepG2",44.7 µM
same,selectivity ratio,[9],86.9
same,GI20,HepG2 [10],3.7 µM
same,GI80,HepG2 [10],>100 µM
same,GI50,"HepG2 [10]; Homo sapiens, HepG2",> 100 µM
same,selectivity ratio,[11],7.17
same,Activity,HCT-116 [12],Active
same,selectivity ratio at 48 h,[13],4.1
same,selectivity ratio,[14],5.75
same,selectivity ratio,[15],86.9
same,Activity,HepG2 [16],13.2
same,GI50 at 48 h,[17],> 100 µM
same,GI20,BALB/3T3 [18],3.7 µM
same,GI80,BALB/3T3 [18],> 100 µM
same,GI50 at 72 h,[19],98.3 µM
same,GI50,HeLa,49.3 µM
same,selectivity ratio at 72 h,[20],3
same,Activity,HepG2 [21],Active
same,inhibition,[22],inactive
same,Activity,HCT-116 [23],Active
same,selectivity ratio at 48 h,[24],1500
same,selectivity ratio,[25],1.41
same,GI50 at 72 h,[26],51.5 µM
same,GI20,BALB/3T3 [27],0.7 µM
same,GI80,BALB/3T3 [27],> 100 µM
same,RatioGI50,[28],1.11
same,Activity,HepG2 [29],26.2%
same,Activity,BALB/3T3 [30],8.4%
same,selectivity ratio,[31],1.41
same,selectivity ratio,[32],99.4
same,GI20,HepG2 [33],2.4 µM
same,GI80,HepG2 [33],80.7 µM
same,GI50,"HepG2 [33]; Homo sapiens, HepG2",40.1 µM
same,GI50 at 48 h,[34],25 µM
same,GI20,BALB/3T3 [35],0.8 µM
same,GI80,BALB/3T3 [35],84.8 µM
same,Activity,HCT-116 [36],3.1
same,Activity,HCT-116 [37],Active
same,Activity,Salmon testes DNA [38],5.4%
same,RatioGI50,[39],1.11

# — ChEMBL document CHEMBL5055656, “Synthesis of novel indole-thiazolidinone hybrid structures as promising scaffold with anticancer potential” (Bioorg Med Chem, 2021)
